Measured values reported in US10807986B2, “Fused pyrimidine compound or salt thereof” (TAIHO PHARMACEUTICAL CO., LTD., priority 2016, dated 2020).

Assay: Evaluation of stability in liver microsome
Conditions: mouse liver microsome 0.25 mg/mL, test compound 1 μM, 37° C., 30 minutes

| Compound | Remaining (%) |
| --- | --- |
| COCc1ccc(NC(=O)c2c(C#Cc3ccc(Cl)nc3)n(C3(C)CC3)c3ncnc(N)c23)cc1 [Example 120, 4-amino-6-((6-chloropyridin-3-yl)ethynyl)-N-(4-(methoxymethyl)phenyl)-7-(1-methylcyclopropyl)-7H-pyrrolo[2,3-d]pyrimidine-5-carboxamide] | 72% |
| COCc1ccc(NC(=O)c2c(C#Cc3c[nH]c4ccccc34)n(C3(C)CC3)c3ncnc(N)c23)cc1 [Example 121, 6-((1H-indol-3-yl)ethynyl)-4-amino-N-(4-(methoxymethyl)phenyl)-7-(1-methylcyclopropyl)-7H-pyrrolo[2,3-d]pyrimidine-5-carboxamide] | 74% |
| COCc1ccc(NC(=O)c2c(C#Cc3cccc(NCc4ccncc4)c3)n(C3(C)CC3)c3ncnc(N)c23)cc1 [Example 122, 4-amino-N-(4-(methoxymethyl)phenyl)-7-(1-methylcyclopropyl)-6-((3-((pyridin-4-ylmethyl)amino)phenyl)ethynyl)-7H-pyrrolo[2,3-d]pyrimidine-5-carboxamide] | 62% |
| COCc1ccc(NC(=O)c2c(C#CCC3(O)COC3)n(C3(C)CC3)c3ncnc(N)c23)cc1 [Example 125, 4-amino-6-(3-(3-hydroxyoxetan-3-yl)prop-1-yn-1-yl)-N-(4-(methoxymethyl)phenyl)-7-(1-methylcyclopropyl)-7H-pyrrolo[2,3-d]pyrimidine-5-carboxamide] | 74% |
| COCc1ccc(NC(=O)c2c(C#Cc3csc(C)n3)n(C3(C)CC3)c3ncnc(N)c23)cc1 [Example 126, 4-amino-N-(4-(methoxymethyl)phenyl)-7-(1-methylcyclopropyl)-6-((2-methylthiazol-4-yl)ethynyl)-7H-pyrrolo[2,3-d]pyrimidine-5-carboxamide] | 69% |
| CCOc1c(C(=O)Nc2ccc(COC)cc2)c2c(N)ncnc2n1C1(C)CC1 [Example 127, 4-amino-6-ethoxy-N-(4-(methoxymethyl)phenyl)-7-(1-methylcyclopropyl)-7H-pyrrolo[2,3-d]pyrimidine-5-carboxamide] | 70% |
| COCc1ccc(NC(=O)c2c(C#Cc3cnc4[nH]ccc4c3)n(C3(C)CC3)c3ncnc(N)c23)cc1 [Example 128, 6-((1H-pyrrolo[2,3-b]pyridin-5-yl)ethynyl)-4-amino-N-(4-(methoxymethyl)phenyl)-7-(1-methylcyclopropyl)-7H-pyrrolo[2,3-d]pyrimidine-5-carboxamide] | 82% |
| COCc1ccc(NC(=O)c2c(C#Cc3ccn[nH]3)n(C3(C)CC3)c3ncnc(N)c23)cc1 [Example 129, 6-((1H-pyrazol-5-yl)ethynyl)-4-amino-N-(4-(methoxymethyl)phenyl)-7-(1-methylcyclopropyl)-7H-pyrrolo[2,3-d]pyrimidine-5-carboxamide] | 54% |
| COCc1ccc(NC(=O)c2c(C#Cc3cccc(F)c3)n(C3(C)CC3)c3ncnc(N)c23)cc1 [Example 130, 4-amino-6-((3-fluorophenyl)ethynyl)-N-(4-(methoxymethyl)phenyl)-7-(1-methylcyclopropyl)-7H-pyrrolo[2,3-d]pyrimidine-5-carboxamide] | 84% |
| COCc1ccc(NC(=O)c2c(C#CC3(O)CCCC3)n(C3(C)CC3)c3ncnc(N)c23)cc1 [Example 131, 4-amino-6-((1-hydroxycyclopentyl)ethynyl)-N-(4-(methoxymethyl)phenyl)-7-(1-methylcyclopropyl)-7H-pyrrolo[2,3-d]pyrimidine-5-carboxamide] | 55% |
| COCc1ccc(NC(=O)c2c(C#CCN3CCN(C)CC3)n(C3(C)CC3)c3ncnc(N)c23)cc1 [Example 132, 4-amino-N-(4-(methoxymethyl)phenyl)-7-(1-methylcyclopropyl)-6-(3-(4-methylpiperazin-1-yl)prop-1-yn-1-yl)-7H-pyrrolo[2,3-d]pyrimidine-5-carboxamide] | 77% |
| COCc1ccc(NC(=O)c2c(C#CC(C)(C)N)n(C3(C)CC3)c3ncnc(N)c23)cc1 [Example 134, 4-amino-6-(3-amino-3-methylbut-1-yn-1-yl)-N-(4-(methoxymethyl)phenyl)-7-(1-methylcyclopropyl)-7H-pyrrolo[2,3-d]pyrimidine-5-carboxamide] | 79% |
| COCc1ccc(NC(=O)c2c(OCC3CCCO3)n(C3(C)CC3)c3ncnc(N)c23)cc1 (centres unmarked) [Example 135, 4-amino-N-(4-(methoxymethyl)phenyl)-7-(1-methylcyclopropyl)-6-((tetrahydrofuran-2-yl)methoxy)-7H-pyrrolo[2,3-d]pyrimidine-5-carboxamide] | 67% |
| COCc1ccc(NC(=O)c2c(OCCN3CCCC3=O)n(C3(C)CC3)c3ncnc(N)c23)cc1 [Example 136, 4-amino-N-(4-(methoxymethyl)phenyl)-7-(1-methylcyclopropyl)-6-(2-(2-oxopyrrolidin-1-yl)ethoxy)-7H-pyrrolo[2,3-d]pyrimidine-5-carboxamide] | 78% |

Continued, values first:

| Remaining (%) | Compound |
| --- | --- |
| 53% | COCc1ccc(NC(=O)c2c(OCC(C)(C)OC)n(C3(C)CC3)c3ncnc(N)c23)cc1 [Example 137, 4-amino-6-(2-methoxy-2-methylpropoxy)-N-(4-(methoxymethyl)phenyl)-7-(1-methylcyclopropyl)-7H-pyrrolo[2,3-d]pyrimidine-5-carboxamide] |
| 52% | COCc1ccc(NC(=O)c2c(OCC3CCCC3)n(C3(C)CC3)c3ncnc(N)c23)cc1 [Example 140, 4-amino-6-(cyclopentylmethoxy)-N-(4-(methoxymethyl)phenyl)-7-(1-methylcyclopropyl)-7H-pyrrolo[2,3-d] pyrimidine-5-carboxamide] |
| 68% | COCc1ccc(NC(=O)c2c(OCC3CCOCC3)n(C3(C)CC3)c3ncnc(N)c23)cc1 [Example 141, 4-amino-N-(4-(methoxymethyl)phenyl)-7-(1-methylcyclopropyl)-6-((tetrahydro-2H-pyran-4-yl)methoxy)-7H-pyrrolo[2,3-d]pyrimidine-5-carboxamide] |
| 68% | COCc1ccc(NC(=O)c2c(C#CCC3(O)CCOCC3)n(C3(C)CC3)c3ncnc(N)c23)cc1 [Example 143, 4-amino-6-(3-(4-hydroxytetrahydro-2H-pyran-4-yl)prop-1-yn-1-yl)-N-(4-(methoxymethyl)phenyl)-7-(1-methylcyclopropyl)-7H-pyrrolo[2,3-d]pyrimidine-5-carboxamide] |
| 79% | COCc1ccc(NC(=O)c2c(C#Cc3cnn(C(C)C)c3)n(C3(C)CC3)c3ncnc(N)c23)cc1 [Example 144, 4-amino-6-((1-isopropyl-1H-pyrazol-4-yl)ethynyl)-N-(4-(methoxymethyl)phenyl)-7-(1-methylcyclopropyl)-7H-pyrrolo[2,3-d]pyrimidine-5-carboxamide] |
| 72% | COCc1ccc(NC(=O)c2c(-c3ccc(CO)cc3)n(C3(C)CC3)c3ncnc(N)c23)cc1 [Example 145, 4-amino-6-(4-(hydroxymethyl)phenyl)-N-(4-(methoxymethyl)phenyl)-7-(1-methylcyclopropyl)-7H-pyrrolo[2,3-d]pyrimidine-5-carboxamide] |
| 68% | COCc1ccc(NC(=O)c2c(-c3ccc(NC(C)=O)nc3)n(C3(C)CC3)c3ncnc(N)c23)cc1 [Example 147, 6-(6-acetamidopyridin-3-yl)-4-amino-N-(4-(methoxymethyl)phenyl)-7-(1-methylcyclopropyl)-7H-pyrrolo[2,3-d]pyrimidine-5-carboxamide] |
| 61% | COCc1ccc(NC(=O)c2c(-c3ccc(O)cc3)n(C3(C)CC3)c3ncnc(N)c23)cc1 [Example 148, 4-amino-6-(4-hydroxyphenyl)-N-(4-(methoxymethyl)phenyl)-7-(1-methylcyclopropyl)-7H-pyrrolo[2,3-d]pyrimidine-5-carboxamide] |
| 62% | C=C(C)c1c(C(=O)Nc2ccc(COC)cc2)c2c(N)ncnc2n1C1(C)CC1 [Example 149, 4-amino-N-(4-(methoxymethyl)phenyl)-7-(1-methylcyclopropyl)-6-(prop-1-en-2-yl)-7H-pyrrolo[2,3-d]pyrimidine-5-carboxamide] |
| 78% | COCc1ccc(NC(=O)c2c(-c3cnn(C)c3)n(C3(C)CC3)c3ncnc(N)c23)cc1 [Example 150, 4-amino-N-(4-(methoxymethyl)phenyl)-6-(1-methyl-1H-pyrazol-4-yl)-7-(1-methylcyclopropyl)-7H-pyrrolo[2,3-d]pyrimidine-5-carboxamide] |
| 57% | COCc1ccc(NC(=O)c2c(C#CCC3CCOCC3)n(C3(C)CC3)c3ncnc(N)c23)cc1 [Example 152, 4-amino-N-(4-(methoxymethyl)phenyl)-7-(1-methylcyclopropyl)-6-(3-(tetrahydro-2H-pyran-4-yl)prop-1-yn-1-yl)-7H-pyrrolo[2,3-d]pyrimidine-5-carboxamide] |
| 50% | COCc1ccc(NC(=O)c2c(-c3ccccc3)n(C3(C)CC3)c3ncnc(N)c23)cc1 [Example 154, 4-amino-N-(4-(methoxymethyl)phenyl)-7-(1-methylcyclopropyl)-6-phenyl-7H-pyrrolo[2,3-d]pyrimidine-5-carboxamide] |
| 64% | COCc1ccc(NC(=O)c2c(C#Cc3ccc(N)nc3)n(C3(C)CC3)c3ncnc(N)c23)cc1 [Example 155, 4-amino-6-((6-aminopyridin-3-yl)ethynyl)-N-(4-(methoxymethyl)phenyl)-7-(1-methylcyclopropyl)-7H-pyrrolo[2,3-d]pyrimidine-5-carboxamide] |
| 67% | COCc1ccc(NC(=O)c2c(C#CCC3NC(=O)NC3=O)n(C3(C)CC3)c3ncnc(N)c23)cc1 (centres unmarked) [Example 156, 4-amino-6-(3-(2,5-dioxoimidazolidin-4-yl)prop-1-yn-1-yl)-N-(4-(methoxymethyl)phenyl)-7-(1-methylcyclopropyl)-7H-pyrrolo[2,3-d]pyrimidine-5-carboxamide] |
| 59% | CCC(O)CC#Cc1c(C(=O)Nc2ccc(COC)cc2)c2c(N)ncnc2n1C1(C)CC1 (centres unmarked) [Example 157, 4-amino-6-(4-hydroxyhex-1-yn-1-yl)-N-(4-(methoxymethyl)phenyl)-7-(1-methylcyclopropyl)-7H-pyrrolo[2,3-d]pyrimidine-5-carboxamide] |
